Read-outs that look alike come from different tables or passages of the source.
Experiments:
influenza A virus = format: in vivo, C57BL/6 mice; settings: 0.04, 0.2, and 1.00 mg/kg i.p. once a day for 5 days, observed 16 days
SARS-COV-2 = settings: for Lung, Alveolar wall thickening: Mild, incidence / Lung, Alveolar wall thickening: Minimal, incidence / Lung, Alveolar wall thickening: Moderate, incidence / Lung, Alveolar wall thickening: Normal, incidence / Lung, Alveolar wall thickening: Severe, incidence / Lung, Hemorrhage: Mild, incidence / Lung, Hemorrhage: Minimal, incidence / Lung, Hemorrhage: Moderate, incidence / Lung, Hemorrhage: Normal, incidence / Lung, Hemorrhage: Severe, incidence / Lung, Hyaline membrane: Mild, incidence / Lung, Hyaline membrane: Minimal, incidence / Lung, Hyaline membrane: Moderate, incidence / Lung, Hyaline membrane: Normal, incidence / Lung, Hyaline membrane: Severe, incidence / Lung, Inflammatory cell, intestinal: Mild, incidence / Lung, Inflammatory cell, intestinal: Minimal, incidence / Lung, Inflammatory cell, intestinal: Moderate, incidence / Lung, Inflammatory cell, intestinal: Normal, incidence / Lung, Inflammatory cell, intestinal: Severe, incidence / Lung, Neutrophilic/lymphocytic cell, alveolar: Mild, incidence / Lung, Neutrophilic/lymphocytic cell, alveolar: Minimal, incidence / Lung, Neutrophilic/lymphocytic cell, alveolar: Moderate, incidence / Lung, Neutrophilic/lymphocytic cell, alveolar: Normal, incidence / Lung, Proteinaceous debris: Mild, incidence / Lung, Proteinaceous debris: Minimal, incidence / Lung, Proteinaceous debris: Moderate, incidence / Lung, Proteinaceous debris: Normal, incidence / Lung, Proteinaceous debris: Severe, incidence: 5 animals
Experimental: Syrian hamsters (Female, 11 weeks, Raon Bio Co., Ltd.) were infected with SARS-COV-2 (2×10^5 pfu/mL) through intranasal irrigation.
Body weight was measured on the day of infection, the second day after infection, and the fourth day after infection.
Autopsy was measured on the fourth day after infection.

in vitro [1] = format: cell-based
Experimental: In order to determine the half maximal cytotoxic concentration (CC50) of AGM-330, confluent A549, MDCK, Vero E6, MA104, MARC-145, and LLC-PK cells grown in 96-well plates were treated with dilutions of NCL-targeting peptide ligands (AGM-330d-mCPP, AGM-330t-mCPP) prepared from a low concentration to […], followed by incubation for 24 hours. After removing each culture medium, 200 μL of a 3-(4,5-dimethylthiazol-2-yl)-2,5-diphenyl tetrazolium bromide (MTT) solution was added thereto, followed by incubation in a 5% CO2 incubator at 36° C. for 4 hours. Then, 150 μL of a DMSO solution was added to each well and then incubated at 20° C. Then, the optical density (OD) was measured at a wavelength of 570 nm with an enzyme-linked immunosorbent assay (ELISA) reader (Table 6).

in vitro [2] = settings: African green monkey
[3] = system: A549, MDCK, Vero E6, MA104, MARC-145, and LLC-PK cells; settings: 10 μM

Q: What does the source list for CC[C@H](C)[C@H](NC(=O)[C@H](CCCNC(=N)N)NC(=O)CCN1C(=O)CC(SC[C@H](NC(=O)[C@H](CCCCNC(=O)CCOCCOCCOCCOCCOCCOCCNC(=O)[C@H](CCCCN)NC(=O)[C@H](CC(C)C)NC(=O)[C@H](Cc2ccc(O)cc2)NC(=O)[C@@H](NC(=O)[C@H](CCSC)NC(=O)[C@H](C)NC(=O)CNC(=O)[C@H](Cc2c[nH]cn2)NC(=O)[C@@H](N)CCCNC(=N)N)C(C)C)NC(=O)CCOCCOCCOCCOCCOCCOCCNC(=O)[C@H](CCCCN)NC(=O)[C@H](CC(C)C)NC(=O)[C@H](Cc2ccc(O)cc2)NC(=O)[C@@H](NC(=O)[C@H](CCSC)NC(=O)[C@H](C)NC(=O)CNC(=O)[C@H](Cc2c[nH]cn2)NC(=O)[C@@H](N)CCCNC(=N)N)C(C)C)C(=O)O)C1=O)C(=O)N[C@@H](CCSC)C(=O)N[C@@H](CCCNC(=N)N)C(=O)N[C@H](C(=O)N[C@@H](CC(C)C)C(=O)N[C@@H](CCCNC(=N)N)C(=O)N[C@H](C(=O)N[C@@H](CC(C)C)C(=O)N[C@@H](CCCCN)C(=O)N[C@@H](CC(C)C)C(=O)N[C@@H](C)C(=O)N[C@@H](CCCNC(=N)N)C(=O)O)[C@@H](C)CC)[C@@H](C)CC (stereo partly shown) [AGM-330d-mCPP]?
A: survival rate (influenza A virus): significantly improved survival rate; lung histopathological lesions versus virus control group (SARS-COV-2; 6 mg/kg): significantly reduced; macroscopic lung changes versus virus control group (SARS-COV-2; 6 mg/kg, autopsy fourth day after infection): significantly alleviated; mortality (SARS-COV-2; 0.2, 2, 6 mg/kg i.p., eight times for four days, observed 5 days after infection): no dead animals occurred; body weight change versus virus control group (SARS-COV-2; 0.2, 2, 6 mg/kg i.p., day of infection, day 2, day 4): No significant weight change; Lung, Alveolar wall thickening: Mild, incidence (SARS-COV-2; AGM-1: 0.2 mg/kg): 3; Lung, Alveolar wall thickening: Minimal, incidence (SARS-COV-2; AGM-1: 0.2 mg/kg): 0; Lung, Alveolar wall thickening: Moderate, incidence (SARS-COV-2; AGM-1: 0.2 mg/kg): 2; Lung, Alveolar wall thickening: Normal, incidence (SARS-COV-2; AGM-1: 0.2 mg/kg): 0; Lung, Alveolar wall thickening: Severe, incidence (SARS-COV-2; AGM-1: 0.2 mg/kg): 0; Lung, Hemorrhage: Mild, incidence (SARS-COV-2; AGM-1: 0.2 mg/kg): 2; Lung, Hemorrhage: Minimal, incidence (SARS-COV-2; AGM-1: 0.2 mg/kg): 3; Lung, Hemorrhage: Moderate, incidence (SARS-COV-2; AGM-1: 0.2 mg/kg): 0; Lung, Hemorrhage: Normal, incidence (SARS-COV-2; AGM-1: 0.2 mg/kg): 0; Lung, Hemorrhage: Severe, incidence (SARS-COV-2; AGM-1: 0.2 mg/kg): 0; Lung, Hyaline membrane: Mild, incidence (SARS-COV-2; AGM-1: 0.2 mg/kg): 3; Lung, Hyaline membrane: Minimal, incidence (SARS-COV-2; AGM-1: 0.2 mg/kg): 0; Lung, Hyaline membrane: Moderate, incidence (SARS-COV-2; AGM-1: 0.2 mg/kg): 2; Lung, Hyaline membrane: Normal, incidence (SARS-COV-2; AGM-1: 0.2 mg/kg): 0; Lung, Hyaline membrane: Severe, incidence (SARS-COV-2; AGM-1: 0.2 mg/kg): 0; Lung, Inflammatory cell, intestinal: Mild, incidence (SARS-COV-2; AGM-1: 0.2 mg/kg): 2; Lung, Inflammatory cell, intestinal: Minimal, incidence (SARS-COV-2; AGM-1: 0.2 mg/kg): 0; Lung, Inflammatory cell, intestinal: Moderate, incidence (SARS-COV-2; AGM-1: 0.2 mg/kg): 3; Lung, Inflammatory cell, intestinal: Normal, incidence (SARS-COV-2; AGM-1: 0.2 mg/kg): 0; Lung, Inflammatory cell, intestinal: Severe, incidence (SARS-COV-2; AGM-1: 0.2 mg/kg): 0; Lung, Neutrophilic/lymphocytic cell, alveolar: Mild, incidence (SARS-COV-2; AGM-1: 0.2 mg/kg): 3; Lung, Neutrophilic/lymphocytic cell, alveolar: Minimal, incidence (SARS-COV-2; AGM-1: 0.2 mg/kg): 2; Lung, Neutrophilic/lymphocytic cell, alveolar: Moderate, incidence (SARS-COV-2; AGM-1: 0.2 mg/kg): 0; Lung, Neutrophilic/lymphocytic cell, alveolar: Normal, incidence (SARS-COV-2; AGM-1: 0.2 mg/kg): 0; Lung, Proteinaceous debris: Mild, incidence (SARS-COV-2; AGM-1: 0.2 mg/kg): 2; Lung, Proteinaceous debris: Minimal, incidence (SARS-COV-2; AGM-1: 0.2 mg/kg): 3; Lung, Proteinaceous debris: Moderate, incidence (SARS-COV-2; AGM-1: 0.2 mg/kg): 0; Lung, Proteinaceous debris: Normal, incidence (SARS-COV-2; AGM-1: 0.2 mg/kg): 0; Lung, Proteinaceous debris: Severe, incidence (SARS-COV-2; AGM-1: 0.2 mg/kg): 0; Lung, Alveolar wall thickening: Mild, incidence (SARS-COV-2; AGM-2: 2 mg/kg): 3; Lung, Alveolar wall thickening: Minimal, incidence (SARS-COV-2; AGM-2: 2 mg/kg): 0; Lung, Alveolar wall thickening: Moderate, incidence (SARS-COV-2; AGM-2: 2 mg/kg): 2; Lung, Alveolar wall thickening: Normal, incidence (SARS-COV-2; AGM-2: 2 mg/kg): 0; Lung, Alveolar wall thickening: Severe, incidence (SARS-COV-2; AGM-2: 2 mg/kg): 0; Lung, Hemorrhage: Mild, incidence (SARS-COV-2; AGM-2: 2 mg/kg): 3; Lung, Hemorrhage: Minimal, incidence (SARS-COV-2; AGM-2: 2 mg/kg): 2; Lung, Hemorrhage: Moderate, incidence (SARS-COV-2; AGM-2: 2 mg/kg): 0; Lung, Hemorrhage: Normal, incidence (SARS-COV-2; AGM-2: 2 mg/kg): 0; Lung, Hemorrhage: Severe, incidence (SARS-COV-2; AGM-2: 2 mg/kg): 0; Lung, Hyaline membrane: Mild, incidence (SARS-COV-2; AGM-2: 2 mg/kg): 3; Lung, Hyaline membrane: Minimal, incidence (SARS-COV-2; AGM-2: 2 mg/kg): 0; Lung, Hyaline membrane: Moderate, incidence (SARS-COV-2; AGM-2: 2 mg/kg): 2; Lung, Hyaline membrane: Normal, incidence (SARS-COV-2; AGM-2: 2 mg/kg): 0; Lung, Hyaline membrane: Severe, incidence (SARS-COV-2; AGM-2: 2 mg/kg): 0; Lung, Inflammatory cell, intestinal: Mild, incidence (SARS-COV-2; AGM-2: 2 mg/kg): 1; Lung, Inflammatory cell, intestinal: Minimal, incidence (SARS-COV-2; AGM-2: 2 mg/kg): 0; Lung, Inflammatory cell, intestinal: Moderate, incidence (SARS-COV-2; AGM-2: 2 mg/kg): 3; Lung, Inflammatory cell, intestinal: Normal, incidence (SARS-COV-2; AGM-2: 2 mg/kg): 0; Lung, Inflammatory cell, intestinal: Severe, incidence (SARS-COV-2; AGM-2: 2 mg/kg): 1; Lung, Neutrophilic/lymphocytic cell, alveolar: Mild, incidence (SARS-COV-2; AGM-2: 2 mg/kg): 3; Lung, Neutrophilic/lymphocytic cell, alveolar: Minimal, incidence (SARS-COV-2; AGM-2: 2 mg/kg): 2; Lung, Neutrophilic/lymphocytic cell, alveolar: Moderate, incidence (SARS-COV-2; AGM-2: 2 mg/kg): 0; Lung, Neutrophilic/lymphocytic cell, alveolar: Normal, incidence (SARS-COV-2; AGM-2: 2 mg/kg): 0; Lung, Proteinaceous debris: Mild, incidence (SARS-COV-2; AGM-2: 2 mg/kg): 2; Lung, Proteinaceous debris: Minimal, incidence (SARS-COV-2; AGM-2: 2 mg/kg): 3; Lung, Proteinaceous debris: Moderate, incidence (SARS-COV-2; AGM-2: 2 mg/kg): 0; Lung, Proteinaceous debris: Normal, incidence (SARS-COV-2; AGM-2: 2 mg/kg): 0; Lung, Proteinaceous debris: Severe, incidence (SARS-COV-2; AGM-2: 2 mg/kg): 0; Lung, Alveolar wall thickening: Mild, incidence (SARS-COV-2; AGM-3: 6 mg/kg): 3; Lung, Alveolar wall thickening: Minimal, incidence (SARS-COV-2; AGM-3: 6 mg/kg): 2; Lung, Alveolar wall thickening: Moderate, incidence (SARS-COV-2; AGM-3: 6 mg/kg): 0; Lung, Alveolar wall thickening: Normal, incidence (SARS-COV-2; AGM-3: 6 mg/kg): 0; Lung, Alveolar wall thickening: Severe, incidence (SARS-COV-2; AGM-3: 6 mg/kg): 0; Lung, Hemorrhage: Mild, incidence (SARS-COV-2; AGM-3: 6 mg/kg): 0; Lung, Hemorrhage: Minimal, incidence (SARS-COV-2; AGM-3: 6 mg/kg): 5; Lung, Hemorrhage: Moderate, incidence (SARS-COV-2; AGM-3: 6 mg/kg): 0; Lung, Hemorrhage: Normal, incidence (SARS-COV-2; AGM-3: 6 mg/kg): 0; Lung, Hemorrhage: Severe, incidence (SARS-COV-2; AGM-3: 6 mg/kg): 0; Lung, Hyaline membrane: Mild, incidence (SARS-COV-2; AGM-3: 6 mg/kg): 1; Lung, Hyaline membrane: Minimal, incidence (SARS-COV-2; AGM-3: 6 mg/kg): 4; Lung, Hyaline membrane: Moderate, incidence (SARS-COV-2; AGM-3: 6 mg/kg): 0; Lung, Hyaline membrane: Normal, incidence (SARS-COV-2; AGM-3: 6 mg/kg): 0; Lung, Hyaline membrane: Severe, incidence (SARS-COV-2; AGM-3: 6 mg/kg): 0; Lung, Inflammatory cell, intestinal: Mild, incidence (SARS-COV-2; AGM-3: 6 mg/kg): 3; Lung, Inflammatory cell, intestinal: Minimal, incidence (SARS-COV-2; AGM-3: 6 mg/kg): 2; Lung, Inflammatory cell, intestinal: Moderate, incidence (SARS-COV-2; AGM-3: 6 mg/kg): 0; Lung, Inflammatory cell, intestinal: Normal, incidence (SARS-COV-2; AGM-3: 6 mg/kg): 0; Lung, Inflammatory cell, intestinal: Severe, incidence (SARS-COV-2; AGM-3: 6 mg/kg): 0; Lung, Neutrophilic/lymphocytic cell, alveolar: Mild, incidence (SARS-COV-2; AGM-3: 6 mg/kg): 0; Lung, Neutrophilic/lymphocytic cell, alveolar: Minimal, incidence (SARS-COV-2; AGM-3: 6 mg/kg): 5; Lung, Neutrophilic/lymphocytic cell, alveolar: Moderate, incidence (SARS-COV-2; AGM-3: 6 mg/kg): 0; Lung, Neutrophilic/lymphocytic cell, alveolar: Normal, incidence (SARS-COV-2; AGM-3: 6 mg/kg): 0; Lung, Proteinaceous debris: Mild, incidence (SARS-COV-2; AGM-3: 6 mg/kg): 1; Lung, Proteinaceous debris: Minimal, incidence (SARS-COV-2; AGM-3: 6 mg/kg): 4; Lung, Proteinaceous debris: Moderate, incidence (SARS-COV-2; AGM-3: 6 mg/kg): 0; Lung, Proteinaceous debris: Normal, incidence (SARS-COV-2; AGM-3: 6 mg/kg): 0; Lung, Proteinaceous debris: Severe, incidence (SARS-COV-2; AGM-3: 6 mg/kg): 0; CC50 at 24 h (in vitro [1]; African green monkey, MA-104, MTT): 99.9 µM; CC50 at 24 h (in vitro [1]; African green monkey, MARC-145, MTT): 98 µM; CC50 at 24 h (in vitro [1]; African green monkey, Vero E6, MTT): 108 µM; CC50 at 24 h (in vitro [1]; human, A549, MTT): 102 µM; CC50 at 24 h (in vitro [1]; human, HRT-18, MTT): 89.5 µM; CC50 at 24 h (in vitro [1]; pig, LLC-PK, MTT): 101 µM; CC50 at 24 h (in vitro [2]): > 20 µM; cytotoxicity at high concentration [3]: did not exhibit significant cytotoxicity

From patent US12611438B2, “Antiviral composition comprising a nucleolin-binding peptide” (ANYGEN CO., LTD., priority 2021, dated 2026)
